Values of other authors, collected in US20070203145A1, “ZOPICLONE RESOLUTION” (priority 2006, published 2007).

Key:
[1] = compared with racemic zopiclone; per U.S. Pat. No. 6,444,673
[2] = compared with racemic zopiclone; per U.S. Pat. No. 6,444,673; remark: listed apart in the source

CN1CCN(C(=O)O[C@H]2c3nccnc3C(=O)N2c2ccc(Cl)cn2)CC1 [S-zopiclone, Eszopiclone]
toxicity relative to the racemic mixture [1]: less toxicity
activity relative to the racemic mixture [2]: twice the activity of the racemic mixture
